Measurements taken from patent US11149037B2, “Pyrazole MAGL inhibitors” (H. Lundbeck A/S, priority 2017, dated 2021).

What was measured:
Format in all cases: biochemical
MAGL [1] = target: MAGL (Homo sapiens (Human), UniProt Q99685); assay: In vitro competitive activity-based protein profiling, human proteomes (prefrontal cortex or PC3 cell membrane fractions); details: human proteome; for inhibition at 1 µM: read-out: MAGL % inh. 1 μM (human)
Method in brief: (§1)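 Activity of MAGL and FAAH was quantified from fluorescent gel band intensities. Beforehand, inhibitors at several concentrations competed against subsequent probe labelling (FP-Rh, JW912 or HT-01) in species-matched proteomes, each step 30 min at 37° C.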

FAAH [2] = target: FAAH (Homo sapiens (Human), UniProt O00519); assay: as above; details: human proteome; for inhibition at 1 µM: read-out: FAAH % inh. 1 μM (human)
Method in brief: as §1

MAGL [3] = target: MAGL (Mus musculus (Mouse), UniProt O35678); assay: In vitro competitive activity-based protein profiling, mouse proteomes (brain membrane fraction or cell lysates); details: mouse proteome, read-out: MAGL % inh. 1 μM (mouse)
Method in brief: as §1

FAAH [4] = target: FAAH (Mus musculus (Mouse), UniProt O08914); assay: as above; details: mouse proteome, read-out: FAAH % inh. 1 μM (mouse)
Method in brief: as §1

Sequence of FAAH (Mus musculus (Mouse), UniProt O08914) (O08914 whole entry): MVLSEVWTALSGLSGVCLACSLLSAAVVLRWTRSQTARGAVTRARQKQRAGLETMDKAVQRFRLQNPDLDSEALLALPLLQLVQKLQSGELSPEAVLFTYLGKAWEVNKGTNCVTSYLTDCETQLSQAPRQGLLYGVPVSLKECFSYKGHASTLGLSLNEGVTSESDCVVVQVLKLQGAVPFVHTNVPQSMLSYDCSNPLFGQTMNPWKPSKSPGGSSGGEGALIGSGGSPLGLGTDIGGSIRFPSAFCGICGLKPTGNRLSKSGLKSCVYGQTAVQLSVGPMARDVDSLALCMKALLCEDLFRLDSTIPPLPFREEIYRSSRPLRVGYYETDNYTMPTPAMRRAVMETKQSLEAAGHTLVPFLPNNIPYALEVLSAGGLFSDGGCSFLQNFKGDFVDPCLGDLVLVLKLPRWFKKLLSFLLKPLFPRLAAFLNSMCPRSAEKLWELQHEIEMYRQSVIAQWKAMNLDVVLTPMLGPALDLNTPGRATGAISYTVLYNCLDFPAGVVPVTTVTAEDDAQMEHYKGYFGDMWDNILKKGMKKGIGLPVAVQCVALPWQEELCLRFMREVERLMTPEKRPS
Sequence of MAGL (Mus musculus (Mouse), UniProt O35678) (O35678 whole entry): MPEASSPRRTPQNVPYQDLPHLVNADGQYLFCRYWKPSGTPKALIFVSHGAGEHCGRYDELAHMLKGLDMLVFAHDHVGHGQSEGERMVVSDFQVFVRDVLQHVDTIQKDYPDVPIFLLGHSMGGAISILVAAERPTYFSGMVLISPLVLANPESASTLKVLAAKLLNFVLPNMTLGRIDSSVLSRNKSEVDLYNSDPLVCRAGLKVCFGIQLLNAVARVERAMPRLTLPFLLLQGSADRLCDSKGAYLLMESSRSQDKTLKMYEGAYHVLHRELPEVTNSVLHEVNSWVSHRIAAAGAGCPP
Sequence of MAGL (Homo sapiens (Human), UniProt Q99685) (Q99685 whole entry): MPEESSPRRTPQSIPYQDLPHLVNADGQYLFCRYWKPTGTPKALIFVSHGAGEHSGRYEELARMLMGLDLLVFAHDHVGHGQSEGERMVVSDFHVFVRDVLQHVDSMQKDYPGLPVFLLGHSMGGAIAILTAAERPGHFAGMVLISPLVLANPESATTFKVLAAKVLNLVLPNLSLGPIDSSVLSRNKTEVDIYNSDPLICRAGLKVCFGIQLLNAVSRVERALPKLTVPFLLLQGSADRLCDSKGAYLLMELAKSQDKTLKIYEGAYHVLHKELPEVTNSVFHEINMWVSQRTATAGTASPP
Sequence of FAAH (Homo sapiens (Human), UniProt O00519) (O00519 whole entry): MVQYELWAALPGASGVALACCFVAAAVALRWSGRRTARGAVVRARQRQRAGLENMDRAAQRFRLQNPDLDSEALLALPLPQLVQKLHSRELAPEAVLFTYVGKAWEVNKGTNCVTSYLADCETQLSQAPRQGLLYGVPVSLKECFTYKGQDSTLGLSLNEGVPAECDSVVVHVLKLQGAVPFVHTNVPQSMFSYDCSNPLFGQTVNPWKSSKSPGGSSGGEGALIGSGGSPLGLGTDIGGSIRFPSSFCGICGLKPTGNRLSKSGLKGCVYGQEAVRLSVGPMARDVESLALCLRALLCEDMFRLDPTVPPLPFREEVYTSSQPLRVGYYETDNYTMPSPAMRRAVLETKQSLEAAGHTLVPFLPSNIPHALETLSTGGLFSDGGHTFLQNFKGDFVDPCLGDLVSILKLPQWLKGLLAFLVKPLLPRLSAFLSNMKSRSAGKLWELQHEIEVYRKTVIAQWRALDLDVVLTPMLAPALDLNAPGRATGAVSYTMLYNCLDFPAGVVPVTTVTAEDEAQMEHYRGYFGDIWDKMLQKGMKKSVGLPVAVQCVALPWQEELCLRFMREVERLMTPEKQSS

inhibition at 1 µM (MAGL [1]) | inhibition at 1 µM (FAAH [2]) | inhibition at 1 µM (MAGL [3]) | inhibition at 1 µM (FAAH [4]) | IC50 (MAGL [1]) | IC50 (FAAH [2]) | SMILES
25 to 50% | 0 to 25% | 25 to 50% | 0 to 25% | – | – | CS(=O)(=O)Nc1ccn(C(=O)N2CCN(Cc3ncccc3N3CCCC3)CC2)n1 [Example 86, N-(1-(4-((3-(Pyrrolidin-1-yl)pyridin-2-yl)methyl)piperazine-1-carbonyl)-1H-pyrazol-3-yl)methanesulfonamide]
> 75% | 0 to 25% | > 75% | 0 to 25% | – | – | CC1CN(C(=O)n2ccc(NS(C)(=O)=O)n2)CCN1Cc1ccc(C(F)(F)F)cc1N1CCCC1 (stereo not shown) [Example 88, N-(1-(3-Methyl-4-(2-(pyrrolidin-1-yl)-4-(trifluoromethyl)benzyl)piperazine-1-carbonyl)-1H-pyrazol-3-yl)methanesulfonamide]
> 75% | 0 to 25% | > 75% | 0 to 25% | – | – | CS(=O)(=O)Nc1ccn(C(=O)N2CCN(Cc3ccc(C(F)(F)F)cc3S(=O)(=O)C3CC3)CC2)n1 [Example 89, N-(1-(4-(2-(Cyclopropylsulfonyl)-4-(trifluoromethyl)benzyl)piperazine-1-carbonyl)-1H-pyrazol-3-yl)methanesulfonamide]
> 75% | 25 to 50% | > 75% | 50 to 75% | – | – | CN(Cc1ccc(C(F)(F)F)nc1N1CCCC1)C1(C)CCN(C(=O)n2ccc(NS(C)(=O)=O)n2)CC1 [Example 91, N-(1-(4-Methyl-4-(methyl((2-(pyrrolidin-1-yl)-6-(trifluoromethyl)pyridin-3-yl)methyl)amino)piperidine-1-carbonyl)-1H-pyrazol-3-yl)methanesulfonamide]
> 75% | 0 to 25% | > 75% | 0 to 25% | – | – | CS(=O)(=O)Nc1ccn(C(=O)N2CCC(Oc3ccc(C(F)(F)F)nc3N3CCCC3)CC2)n1 [Example 95, N-(1-(4-((2-(Pyrrolidin-1-yl)-6-(trifluoromethyl)pyridin-3-yl)oxy)piperidine-1-carbonyl)-1H-pyrazol-3-yl)methanesulfonamide]
25 to 50% | 0 to 25% | 25 to 50% | 0 to 25% | – | – | CN(Cc1ccc(C(F)(F)F)cc1N1CCC(C(=O)O)C1)C1(C)CCN(C(=O)n2ccc(NS(C)(=O)=O)n2)CC1 (stereo not shown) [Example 97, 1-(2-((Methyl(4-methyl-1-(3-(methylsulfonamido)-1H-pyrazole-1-carbonyl)piperidin-4-yl)amino)methyl)-5-(trifluoromethyl)phenyl)pyrrolidine-3-carboxylic acid]
> 75% | 0 to 25% | > 75% | 0 to 25% | – | – | CS(=O)(=O)Nc1ccn(C(=O)N2CCC(Oc3ccc(C(F)(F)F)cc3NCC(=O)O)CC2)n1 [Example 99, (2-((1-(3-(Methylsulfonamido)-1H-pyrazole-1-carbonyl)piperidin-4-yl)oxy)-5-(trifluoromethyl)phenyl)glycine]
50 to 75% | 0 to 25% | 50 to 75% | 0 to 25% | – | – | CS(=O)(=O)Nc1ccn(C(=O)N2CCC(Oc3ccc(C(F)(F)F)cc3N3CCCC3=O)CC2)n1 [Example 100, N-(1-(4-(2-(2-Oxopyrrolidin-1-yl)-4-(trifluoromethyl)phenoxy)piperidine-1-carbonyl)-1H-pyrazol-3-yl)methanesulfonamide]
> 75% | 0 to 25% | 50 to 75% | 0 to 25% | – | – | CS(=O)(=O)Nc1ccn(C(=O)N2CCC(Oc3ccc(C(F)(F)F)cc3C(=O)N3CCCC3)CC2)n1 [Example 101, N-(1-(4-(2-(Pyrrolidine-1-carbonyl)-4-(trifluoromethyl)phenoxy)piperidine-1-carbonyl)-1H-pyrazol-3-yl)methanesulfonamide]
50 to 75% | 0 to 25% | 0 to 25% | 0 to 25% | – | – | CN(Cc1ccc(C(F)(F)F)cc1NCC(=O)O)C1(C)CCN(C(=O)n2ccc(NS(C)(=O)=O)n2)CC1 [Example 102, (2-((Methyl(4-methyl-1-(3-(methylsulfonamido)-1H-pyrazole-1-carbonyl)piperidin-4-yl)amino)methyl)-5-(trifluoromethyl)phenyl)glycine]
> 75% | 0 to 25% | > 75% | 0 to 25% | – | – | CC(=O)Nc1ccn(C(=O)N2CCC3(CCCN3Cc3ccc(Cl)cc3OCCCC(=O)O)CC2)n1 [Example 105, 4-(2-((8-(3-Acetamido-1H-pyrazole-1-carbonyl)-1,8-diazaspiro[4.5]decan-1-yl)methyl)-5-chlorophenoxy)butanoic acid]
> 75% | 0 to 25% | > 75% | 0 to 25% | – | – | CS(=O)(=O)Nc1ccn(C(=O)N2CCN(Cc3cc4cc(F)ccc4[nH]3)CC2)n1 [Example 107, N-(1-(4-((5-Fluoro-1H-indol-2-yl)methyl)piperazine-1-carbonyl)-1H-pyrazol-3-yl)methanesulfonamide]
> 75% | 0 to 25% | > 75% | 0 to 25% | – | – | CS(=O)(=O)Nc1ccn(C(=O)N2CCC(Oc3ccc(C(F)(F)F)c(N4CCC(F)CC4)c3)CC2)n1 [Example 109, N-(1-(4-(3-(4-Fluoropiperidin-1-yl)-4-(trifluoromethyl)phenoxy)piperidine-1-carbonyl)-1H-pyrazol-3-yl)methanesulfonamide]
> 75% | 0 to 25% | > 75% | 0 to 25% | – | – | CS(=O)(=O)Nc1ccn(C(=O)N2CCC(Oc3ccc(C(F)(F)F)c(OC4CCCC4)c3)CC2)n1 [Example 110, N-(1-(4-(3-(Cyclopentyloxy)-4-(trifluoromethyl)phenoxy)piperidine-1-carbonyl)-1H-pyrazol-3-yl)methanesulfonamide]
> 75% | 0 to 25% | > 75% | 0 to 25% | – | – | CS(=O)(=O)Nc1ccn(C(=O)N2CCN(Cc3ccc(Cl)c(OC4CCCC4)c3)CC2)n1 [Example 111, N-(1-(4-(4-Chloro-3-(cyclopentyloxy)benzyl)piperazine-1-carbonyl)-1H-pyrazol-3-yl)methanesulfonamide]
> 75% | 25 to 50% | > 75% | > 75% | – | – | CC(=O)Nc1ccn(C(=O)N2CC3CN(Cc4cccc(OC(F)(F)F)c4)CC3C2)n1 (stereo not shown) [Example 113, N-(1-(5-(3-(Trifluoromethoxy)benzyl)octahydropyrrolo[3,4-c]pyrrole-2-carbonyl)-1H-pyrazol-3-yl)acetamide]
> 75% | 25 to 50% | 25 to 50% | > 75% | – | – | CS(=O)(=O)Nc1ccn(C(=O)N2CC3CN(Cc4cccc(C(F)(F)F)c4)CC3C2)n1 (stereo not shown) [Example 114, N-(1-(5-(3-(Trifluoromethyl)benzyl)octahydropyrrolo[3,4-c]pyrrole-2-carbonyl)-1H-pyrazol-3-yl)methanesulfonamide]
> 75% | 25 to 50% | 25 to 50% | > 75% | – | – | CS(=O)(=O)Nc1ccn(C(=O)N2CC3CN(Cc4cccc(OC(F)(F)F)c4)CC3C2)n1 (stereo not shown) [Example 115, N-(1-(5-(3-(Trifluoromethoxy)benzyl)octahydropyrrolo[3,4-c]pyrrole-2-carbonyl)-1H-pyrazol-3-yl)methanesulfonamide]
> 75% | 0 to 25% | 50 to 75% | 0 to 25% | – | – | CS(=O)(=O)Nc1ccn(C(=O)N2CCN(Cc3ccc(C(F)(F)F)c(-c4nnco4)c3)CC2)n1 [Example 116, N-(1-(4-(3-(1,3,4-Oxadiazol-2-yl)-4-(trifluoromethyl)benzyl)piperazine-1-carbonyl)-1H-pyrazol-3-yl)methanesulfonamide]
> 75% | 0 to 25% | > 75% | 0 to 25% | – | – | CS(=O)(=O)Nc1ccn(C(=O)N2CCN(Cc3ccc(C(F)(F)F)c(N4CC[C@@H](F)C4)c3)CC2)n1 [Example 120, (R)-N-(1-(4-(3-(3-Fluoropyrrolidin-1-yl)-4-(trifluoromethyl)benzyl)piperazine-1-carbonyl)-1H-pyrazol-3-yl)methanesulfonamide]
> 75% | > 75% | > 75% | > 75% | < 0.1 µM | 0.1 to 1 µM | CC(=O)Nc1ccn(C(=O)N2CC3CN(Cc4ccc(N5CCCC5)cc4C(F)(F)F)CC3C2)n1 (stereo not shown) [Example 121, N-(1-(5-(4-(Pyrrolidin-1-yl)-2-(trifluoromethyl)benzyl)octahydropyrrolo[3,4-c]pyrrole-2-carbonyl)-1H-pyrazol-3-yl)acetamide]
> 75% | 0 to 25% | > 75% | 0 to 25% | – | – | CS(=O)(=O)Nc1ccn(C(=O)N2CCN(Cc3ccc(Cl)c(N4CC[C@@H](F)C4)c3)CC2)n1 [Example 122, (R)-N-(1-(4-(4-Chloro-3-(3-fluoropyrrolidin-1-yl)benzyl)piperazine-1-carbonyl)-1H-pyrazol-3-yl)methanesulfonamide]

SMILES | inhibition at 1 µM (MAGL [1]) | inhibition at 1 µM (FAAH [2]) | inhibition at 1 µM (MAGL [3]) | inhibition at 1 µM (FAAH [4]) | IC50 (MAGL [1]) | IC50 (FAAH [2])
CS(=O)(=O)Nc1ccn(C(=O)N2CCC(Oc3ccc(C(F)(F)F)cc3N3C4CCC3COC4)CC2)n1 [Example 92, N-(1-(4-(2-(3-Oxa-8-azabicyclo[3.2.1]octan-8-yl)-4-(trifluoromethyl)phenoxy)piperidine-1-carbonyl)-1H-pyrazol-3-yl)methanesulfonamide] | > 75% | 0 to 25% | > 75% | 0 to 25% | – | –
